Structures can show the parent of a compound that is named as a salt. ± gives the standard deviation of the averaged measurements.
How the values were obtained:
[1] = test system: Homo sapiens (human subject panel, olfactory perception); experiment: perceived odor pleasantness rating (rating 0-100); higher = more pleasant
Summary of the method: (§1)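 Stimuli were molecules diluted in paraffin oil at high and low concentrations, with 1 mL of each sniffed in randomized order across ten visits of 100 stimuli. Participants were 55 healthy humans aged 18–50, excluding the six lowest performers. Subjects who smelled a stimulus moved a computerized slider away from its starting point of 50, and positions were rescaled to 0–100. Familiarity, intensity and pleasantness are each reported as an average over subjects.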

[2] = test system: Homo sapiens (human subject panel, olfactory perception); experiment: perceived odor intensity rating (rating 0-100); higher = stronger perceived smell
Summary of the method: as §1

[3] = test system: Homo sapiens (human subject panel, olfactory perception); experiment: perceived odor familiarity rating (rating 0-100); higher = more familiar
Summary of the method: as §1

[4] = odor dilution in paraffin oil: 1/10
[5] = odor dilution in paraffin oil: 1/1,000
[6] = odor dilution in paraffin oil: 1/100,000
[7] = odor dilution in paraffin oil: 1/10,000,000

SMILES	perceived odor pleasantness rating [1, 4]	perceived odor pleasantness rating [1, 5]	perceived odor intensity rating [2, 4]	perceived odor intensity rating [2, 5]	perceived odor familiarity rating [3, 4]	perceived odor familiarity rating [3, 5]	perceived odor pleasantness rating [1, 6]	perceived odor pleasantness rating [1, 7]	perceived odor intensity rating [2, 6]	perceived odor intensity rating [2, 7]	perceived odor familiarity rating [3, 6]	perceived odor familiarity rating [3, 7]
O=C(c1ccccc1)c1ccccc1 [benzophenone]	36.2 ± 24	57.5 ± 25	67.7 ± 27	24.9 ± 29	38.6 ± 31	33.2 ± 28						
Cc1cccc2nccnc12 [5-Methylquinoxaline]							45.7 ± 27	48.6 ± 30	49 ± 31	19.4 ± 29	51.8 ± 31	23.7 ± 32
NCCC(=O)O [beta-Alanine]	50.1 ± 22	50.2 ± 26	38.4 ± 28	33.9 ± 25	35.9 ± 30	40.9 ± 30						
CC(=O)CCC=C(C)C [6-Methyl-5-hepten-2-one]		48.6 ± 30		70.7 ± 23		51.9 ± 31	52.6 ± 23		22.4 ± 25		31.9 ± 29	
COc1ccccc1C=O [o-Anisaldehyde (replicate)]		40.8 ± 28		72.1 ± 23		50.7 ± 31	40.3 ± 24		36 ± 32		46 ± 29	
O=C1CCCCC1 [Cyclohexanone (replicate)]		46 ± 27		66.5 ± 26		51.6 ± 30	55.4 ± 24		20.8 ± 29		28.4 ± 28	
CCCCOC=O [Butyl formate]		45.4 ± 28		51.8 ± 32		49.7 ± 29	44.1 ± 28		8.38 ± 15		29.1 ± 29	
CC(=O)OCCC(C)C [isopentyl acetate]		59.3 ± 25		58.3 ± 31		55.5 ± 32	65.2 ± 23		45.9 ± 30		51 ± 35	
c1ccc(Oc2ccccc2)cc1 [Diphenyl ether]		49.9 ± 26		55.1 ± 29		40.4 ± 28	46.5 ± 22		27 ± 28		42.4 ± 29	
O=C(O)CC(O)(CC(=O)O)C(=O)O [Citric acid]	51.7 ± 26	46.7 ± 28	27.4 ± 28	14.7 ± 22	33.9 ± 30	28.5 ± 31						
C=CCCCCO [5-Hexen-1-ol]		48 ± 28		62.2 ± 32		43.7 ± 33	49.2 ± 23		26 ± 25		42.6 ± 30	
CCCCCCCC [Octane]	53.2 ± 25	44.1 ± 25	59.6 ± 31	13.9 ± 20	46.3 ± 29	27.3 ± 26						
C/C=C/C=C/COC(C)=O [trans,trans-2,4-Hexadienyl acetate (replicate)]	47.6 ± 22	49.5 ± 25	19.1 ± 20	23.5 ± 26	30.4 ± 25	30.6 ± 27						
CCCCCCCC(=O)OCCC(C)C [Isoamyl octanoate]	50 ± 25	57.6 ± 22	62.8 ± 29	24.3 ± 28	45.2 ± 30	45.4 ± 32						
C=CC(CCCCC)OC(C)=O (stereo unspecified) [1-Octen-3-yl acetate]		34.1 ± 22		55.9 ± 29		35.2 ± 29	42.9 ± 24		26.4 ± 26		32.8 ± 27	
C/C=C/C(=O)[C@H](C)CC [5-Methyl-2-hepten-4-one]							45.3 ± 28	64.7 ± 25	69.2 ± 27	26 ± 28	45.1 ± 31	40.8 ± 31
CCCCCCCCCCCCCC(=O)OCC [Ethyl myristate]	50.6 ± 26	42.8 ± 25	39.1 ± 28	20.7 ± 24	40.5 ± 27	38.1 ± 33						
CCC(=O)OC [Methyl Propionate]		55.8 ± 27		38.7 ± 31		48.6 ± 31	55.7 ± 20		19 ± 23		32.6 ± 29	

SMILES	perceived odor pleasantness rating [1, 4]	perceived odor pleasantness rating [1, 5]	perceived odor intensity rating [2, 4]	perceived odor intensity rating [2, 5]	perceived odor familiarity rating [3, 4]	perceived odor familiarity rating [3, 5]	perceived odor pleasantness rating [1, 6]	perceived odor pleasantness rating [1, 7]	perceived odor intensity rating [2, 6]	perceived odor intensity rating [2, 7]	perceived odor familiarity rating [3, 6]	perceived odor familiarity rating [3, 7]
CCC(=O)OCCCc1ccccc1 [3-Phenylpropyl propionate]		36.4 ± 28		62.9 ± 26		49.1 ± 28	49.8 ± 27		28.4 ± 34		38.6 ± 32	
CCCCCCCCCCCCCCCCCC(=O)OCC [Ethyl stearate]	45.7 ± 25	43.4 ± 15	46.8 ± 33	17 ± 17	38.3 ± 34	33.1 ± 24						
CC(=O)OCCc1ccccc1 [Phenethyl acetate]		54.9 ± 28		62.1 ± 28		59.1 ± 32	56.9 ± 24		38.2 ± 32		52.2 ± 34	
CC(=O)C(=O)O [Pyruvic Acid]		39.1 ± 28		70.6 ± 23		52.1 ± 29	53.4 ± 24		37.7 ± 32		44.5 ± 29	
O=C1CCSC1 [4,5-Dihydro-3(2H)-thiophenone]		21.4 ± 26		85.8 ± 20		52.9 ± 34	33.2 ± 22		37 ± 34		30.8 ± 34	
CC(=O)c1ccccc1O [2-Hydroxyacetophenone]		29.5 ± 25		80.7 ± 17		49.6 ± 33	39.2 ± 24		48.5 ± 30		43.8 ± 29	
CC(O)C(C)S (stereo unspecified) [2-Mercapto-3-butanol]							40 ± 26	50.2 ± 23	45.9 ± 32	30.2 ± 30	41.6 ± 32	37 ± 26
OC1CCC2CCCCC2C1 (stereo unspecified) [Decahydro-2-naphthol]		49.9 ± 26		54.8 ± 29		48.7 ± 29	50.6 ± 24		23.1 ± 27		36.3 ± 32	
CCC(=O)OCC(C)C [Isobutyl propionate]		58.6 ± 23		57.3 ± 30		48 ± 27	47.8 ± 23		31.5 ± 28		41 ± 28	
CCCC(=O)OCCC(C)C [Isoamyl butyrate]		52.8 ± 28		63.4 ± 26		51.4 ± 31	45.5 ± 23		20.4 ± 28		36.4 ± 32	
CCCCCC(=O)OC [methyl caproate]		56.2 ± 29		68.4 ± 26		56.4 ± 31	51.8 ± 22		30.5 ± 29		36.3 ± 31	
CC(C)=CCC/C(C)=C\CO [Nerol]		61.4 ± 24		71.1 ± 22		60.3 ± 30	48.8 ± 28		24.3 ± 27		39.8 ± 33	
NCC(=O)O [Glycine]	59.4 ± 23	53.3 ± 25	50 ± 28	17.9 ± 23	47.3 ± 28	40.8 ± 27						
C/C=C/C=C/C(=O)OCC [Ethyl sorbate]		35.3 ± 26		75.4 ± 17		53.1 ± 29	54.8 ± 20		26.1 ± 27		41.5 ± 30	
CCCCCC(C)=O [2-heptanone]		53.8 ± 25		71.1 ± 22		52.7 ± 29	51.9 ± 26		25.4 ± 27		23.9 ± 22	
CC/C=C\CCCCO [cis-5-Octen-1-ol]		59.3 ± 28		75.7 ± 20		69.2 ± 27	66.6 ± 21		40.6 ± 30		59.5 ± 29	
CCC/C=C/COC(C)=O [trans-2-Hexenyl acetate]		41.2 ± 30		64.3 ± 27		52.4 ± 30	49 ± 24		38.3 ± 30		38.8 ± 26	
CCCCCCCCCOC(C)=O [Nonyl acetate]	34.1 ± 27	39.9 ± 19	77.8 ± 18	37.1 ± 28	46.8 ± 29	39 ± 30						

Source: the supplement of paper PMC4977894
